Assay results published in patent publication US8916183B2, “Pesticidal compositions and processes related thereto” (priority 2012, dated 2014).
Read-outs that look alike come from different tables or passages of the source.

Key:
[1] = system: Corn Earworm (CEW) (Helicoverpa zea); experiment: Bioassay on corn earworm (CEW), 128-well diet tray assay; assay type: in vivo; conditions: Helicoverpa zea, read-out: % Mortality CEW 50 μg/cm^2
Experimental: (§1) Certain molecules disclosed in this document were tested against BAW and CEW using procedures described in the following examples. In the reporting of the results, the “BAW & CEW Rating Table” was used (See Table Section).
Bioassays on CEW (Helicoverpa zea)
Bioassays on CEW were conducted using a 128-well diet tray assay. […] Trays were covered with a clear self-adhesive cover and held at 25° C., 14:10 light-dark for five to seven days. Percent mortality was recorded for the larvae in each well; activity in the eight wells was then averaged. The results are indicated in the table entitled “Table 5: Biological Results” (See Table Section).

[2] = system: Beet Armyworm (BAW) (Spodoptera exigua); experiment: Bioassay on beet armyworm (BAW), 128-well diet tray assay; assay type: in vivo; conditions: Spodoptera exigua, read-out: % Mortality BAW 50 μg/cm^2
Experimental: as §1
Bioassays on BAW (Spodoptera exigua)
Bioassays on BAW were conducted using a 128-well diet tray assay. […] Trays were covered with a clear self-adhesive cover and held at 25° C., 14:10 light-dark for five to seven days. Percent mortality was recorded for the larvae in each well; activity in the eight wells was then averaged. The results are indicated in the table entitled “Table 5: Biological Results” (See Table Section).

Structure (SMILES)	mortality at 50 µg/cm2 ([1]; corn earworm, 50 μg/cm^2)	mortality at 50 µg/cm2 ([2]; beet armyworm, 50 μg/cm^2)	mortality at 50 µg/cm2 [1]	mortality at 50 µg/cm2 [2]
Cc1cs/c(=N\N=C\c2ccc(-c3ncn(-c4ccc(OC(F)(F)F)cc4)n3)cc2)n1-c1c(F)cccc1F [Compound 171C]	50 to 100%	50 to 100%	–	–
Cc1cccc(Cl)c1N1C(=O)CCS/C1=N\N=C\c1ccc(-c2ncn(-c3ccc(OC(F)(F)F)cc3)n2)cc1 [Compound 227C]	50 to 100%	50 to 100%	–	–
CC1CS/C(=N\N=C\c2ccc(-c3ncn(-c4ccc(OC(F)(F)F)cc4)n3)cc2)N(c2c(Cl)cccc2C(F)(F)F)C1 (centres unmarked) [Compound 215C]	50 to 100%	50 to 100%	–	–
CCc1cccnc1N1C(=O)CS/C1=N\N=C\c1ccc(-c2ncn(-c3ccc(OC(F)(F)F)cc3)n2)cc1 [Compound 123C]	50 to 100%	50 to 100%	–	–
CC1CS/C(=N\N=C\c2ccc(-c3ncn(-c4ccc(OC(F)(F)F)cc4)n3)cc2)N(c2ccccc2OC(F)(F)F)C1 (centres unmarked) [Compound 214C]	50 to 100%	50 to 100%	–	–
Cc1cccc(C)c1N1C(=O)CCS/C1=N\N=C\c1ccc(-c2ncn(-c3ccc(OC(F)(F)F)cc3)n2)cc1 [Compound 223C]	50 to 100%	50 to 100%	–	–
Cc1cccc(C)c1/N=C(/N/N=C/c1ccc(-c2ncn(-c3ccc(OC(F)(F)F)cc3)n2)cc1)SCC(=O)NCCCN(C)C(=O)OC(C)(C)C [Compound 61C]	–	–	50 to 100%	50 to 100%
Cc1cc(C)c(N2/C(=N/N=C/c3ccc(-c4ncn(-c5ccc(OC(F)(F)F)cc5)n4)cc3)SCC2C)c(C)c1 (centres unmarked) [Compound 161C]	50 to 100%	50 to 100%	–	–
CC1CS/C(=N\N=C\c2ccc(-c3ncn(-c4ccc(OC(F)(F)F)cc4)n3)cc2)N1c1c(Cl)cccc1C(F)(F)F (centres unmarked) [Compound 160C]	50 to 100%	50 to 100%	–	–
C/C(=N\N=C1/SCC(=O)N1c1ccccc1CC(C)C)c1ccc(-c2ncn(-c3ccc(OC(F)(F)F)cc3)n2)cc1 [Compound 122C]	50 to 100%	50 to 100%	–	–
CCC(C)c1ccccc1N1/C(=N/N=C/c2ccc(-c3ncn(-c4ccc(OC(F)(F)F)cc4)n3)cc2)SCC1C (centres unmarked) [Compound 163C]	50 to 100%	50 to 100%	–	–
Cc1cs/c(=N\N=C\c2ccc(-c3ncn(-c4ccc(OC(F)(F)F)cc4)n3)cc2)n1-c1c(Cl)cccc1C(F)(F)F [Compound 169C]	50 to 100%	50 to 100%	–	–
CC1CCS/C(=N\N=C\c2ccc(-c3ncn(-c4ccc(OC(F)(F)F)cc4)n3)cc2)N1c1c(Cl)cccc1C(F)(F)F (centres unmarked) [Compound 217C]	50 to 100%	50 to 100%	–	–
CCc1cccc(C)c1N1C(=O)CCS/C1=N\N=C\c1ccc(-c2ncn(-c3ccc(OC(F)(F)F)cc3)n2)cc1 [Compound 225C]	50 to 100%	50 to 100%	–	–
Cc1cccc(C)c1N1C(=O)CS/C1=N\N=C\c1ccc(-c2cnn(-c3ccc(OC(F)(F)F)cc3)c2)cc1 [Compound 104C]	50 to 100%	50 to 100%	–	–
COc1cc(C)c(/N=C(\N/N=C/c2ccc(-c3ncn(-c4ccc(C(F)(F)F)cc4)n3)cc2)SCOC(=O)CNC(=O)OCc2ccccc2)c(C)c1 [Compound 45C]	–	–	50 to 100%	50 to 100%
Fc1cccc(Cl)c1N1CCS/C1=N\N=C\c1ccc(-c2ncn(-c3ccc(OC(F)(F)F)cc3)n2)cc1 [Compound 143C]	50 to 100%	50 to 100%	–	–
COc1ccc(N2C(=O)CS/C2=N\N=C\c2ccc(-c3ncn(-c4ccc(OC(F)(F)F)cc4)n3)cc2)c(C)c1 [Compound 114C]	50 to 100%	50 to 100%	–	–
COc1ccc(N2C(=O)CCS/C2=N\N=C\c2ccc(-c3ncn(-c4ccc(OC(F)(F)F)cc4)n3)cc2)c(C)c1 [Compound 231C]	50 to 100%	50 to 100%	–	–
CCC1CS/C(=N\N=C\c2ccc(-c3ncn(-c4ccc(OC(F)(F)F)cc4)n3)cc2)N1c1c(C)cccc1Cl (centres unmarked) [Compound 167C]	50 to 100%	50 to 100%	–	–
FC(F)(F)Oc1ccc(-n2cnc(-c3ccc(/C=N/N=C4\SCCCN4c4ccccc4OC(F)(F)F)cc3)n2)cc1 [Compound 199C]	50 to 100%	50 to 100%	–	–
FC(F)(F)Oc1ccc(-n2cnc(-c3ccc(/C=N/N=C4\SCCN4c4ccccc4-c4ccccc4)cc3)n2)cc1 [Compound 144C]	50 to 100%	50 to 100%	–	–
